Read-outs that look alike come from different tables or passages of the source.

The target of experiment [1] is full-length human PHD1 (Homo sapiens (Human), UniProt Q96KS0). Nature of the experiment: TR-FRET assay for PHD enzymes, PHD1. The format is biochemical. The note with it: TR-FRET, 15 nM PHD1, 1 μM 2-OG. The source says: PHD1 was expressed in a baculovirus expression system as the full-length protein (NCBI accession number NP_542770.2) with an N-terminal FLAG tag (molecular weight 44.9 kDa).
A general note: In TR-FRET formats the signal depends on donor and acceptor labels being close together.

The target in experiment [2] is full-length human PHD3 (Homo sapiens (Human), UniProt Q9H6Z9). Nature of the experiment: TR-FRET assay for PHD enzymes, PHD3. The class given is biochemical. An excerpt: Recombinant human PHD3 protein (molecular weight 31.1 kDa) was purchased from Active Motif (Carlsbad, CA, USA). It was expressed in E. coli as the full-length protein (NCBI accession number NP_071356.1) with an N-terminal 6-His tag (catalog #81033, Lot #24417001).

In experiment [3] the target is full-length human PHD2 (Homo sapiens (Human), UniProt Q9GZT9). The experiment can be described thus: TR-FRET assay for PHD enzymes, PHD2. The note with it: read-out: PHD2 IC50; TR-FRET, 5 nM PHD2, 1 μM 2-OG.
Sequence of full-length human PHD2 (Q9GZT9 whole entry): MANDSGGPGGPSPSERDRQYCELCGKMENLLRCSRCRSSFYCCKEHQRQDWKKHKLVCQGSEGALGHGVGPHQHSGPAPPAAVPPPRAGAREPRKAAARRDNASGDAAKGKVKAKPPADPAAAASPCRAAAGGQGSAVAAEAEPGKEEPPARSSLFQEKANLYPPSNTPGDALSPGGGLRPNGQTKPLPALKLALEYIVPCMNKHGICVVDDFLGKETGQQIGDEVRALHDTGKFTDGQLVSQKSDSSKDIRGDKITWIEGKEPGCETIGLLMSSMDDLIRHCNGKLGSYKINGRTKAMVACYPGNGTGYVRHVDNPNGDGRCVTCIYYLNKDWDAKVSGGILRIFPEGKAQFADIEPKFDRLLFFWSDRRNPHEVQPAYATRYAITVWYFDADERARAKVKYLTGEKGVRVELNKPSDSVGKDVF
Source text: Time-resolved fluorescence resonance energy transfer (TR-FRET) assay was utilized to determine the enzymatic half maximal inhibitory concentration (IC50) value of PHD inhibitors against the full-length human prolyl-4-hydroxylase domain (PHD) enzymes, PHD1, PHD2, and PHD3. The TR-FRET assay was developed based on the specific binding of hydroxylated HIF-1α peptide with the complex formed by VHL, EloB and EloC (VBC), to generate a fluorescent signal. Terbium (Tb)-Donor (monoclonal antibody anti-6His-Tb-cryptate Gold) and D2-acceptor (streptavidin [SA]-D2) of TR-FRET are linked to the VBC complex and to HIF-1α peptide, respectively. The VBC complex binds specifically to the HIF-1α peptide when it is hydroxylated, allowing energy transfer from TR-FRET donor to acceptor (FIG. 1). […] The plates were incubated for 30 minutes at room temperature without rotation. […] TR-FRET assays were performed in triplicate at each concentration of compound and the assays were repeated independently three times.

Sequence of full-length human PHD1 (Q96KS0 whole entry): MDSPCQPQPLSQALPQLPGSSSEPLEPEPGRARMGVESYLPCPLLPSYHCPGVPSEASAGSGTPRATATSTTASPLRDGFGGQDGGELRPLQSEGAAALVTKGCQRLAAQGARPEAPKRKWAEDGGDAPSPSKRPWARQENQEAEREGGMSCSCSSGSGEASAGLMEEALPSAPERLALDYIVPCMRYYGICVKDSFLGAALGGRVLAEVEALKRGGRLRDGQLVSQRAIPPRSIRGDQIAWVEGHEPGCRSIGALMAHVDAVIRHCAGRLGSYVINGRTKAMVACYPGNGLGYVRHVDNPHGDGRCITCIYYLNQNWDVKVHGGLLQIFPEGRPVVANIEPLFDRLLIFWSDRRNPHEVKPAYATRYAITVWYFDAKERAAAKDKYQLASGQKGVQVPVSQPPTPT
Sequence of full-length human PHD3 (Q9H6Z9 whole entry): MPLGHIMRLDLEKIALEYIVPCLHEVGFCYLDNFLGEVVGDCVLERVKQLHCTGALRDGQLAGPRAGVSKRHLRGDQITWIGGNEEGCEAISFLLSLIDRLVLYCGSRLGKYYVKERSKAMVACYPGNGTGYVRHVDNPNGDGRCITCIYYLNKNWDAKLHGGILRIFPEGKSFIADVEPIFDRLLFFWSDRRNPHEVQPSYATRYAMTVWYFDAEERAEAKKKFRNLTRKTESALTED

The IC50 is the concentration needed to halve the response being measured. As for `Cc1nn(-c2ccc(F)cc2)cc1-c1cnc(C(=O)NCC(=O)O)c(O)c1C` [Compound 38, (5-(1-(4-fluorophenyl)-3-methyl-1H-pyrazol-4-yl)-3-hydroxy-4-methylpicolinoyl)glycine], the IC50 was < 100 nM in experiment [1]; < 100 nM in experiment [2] (TR-FRET, 35 nM PHD3, 1 μM 2-OG); < 100 nM in experiment [3].
In the case of `Cc1c(-c2cnn(C(C)C)c2)cnc(C(=O)NCC(=O)O)c1O` [Compound 20, (3-Hydroxy-5-(1-isopropyl-1H-pyrazol-4-yl)-4-methylpicolinoyl)glycine], the IC50 in experiment [1] is < 100 nM; in experiment [2] (TR-FRET, 35 nM PHD3, 1 μM 2-OG), < 100 nM; in experiment [3] it was < 100 nM.
On to `Cc1c(-c2cn(CCCc3ccc(Cl)cc3)nn2)cnc(C(=O)NCC(=O)O)c1O` [Compound 43, (5-(1-(3-(4-chlorophenyl)propyl)-1H-1,2,3-triazol-4-yl)-3-hydroxy-4-methylpicolinoyl)glycine], for which the IC50 in experiment [1] was < 100 nM; in experiment [2] (TR-FRET, 35 nM PHD3, 1 μM 2-OG), < 100 nM; in experiment [3], < 100 nM.
Regarding `Cc1ccc(-c2cnc(C(=O)NCC(=O)O)c(O)c2C)cn1` [Compound 27, (5-hydroxy-4,6′-dimethyl-[3,3′-bipyridine]-6-carbonyl)glycine], the figures for the IC50 in experiment [1], in experiment [2] and in experiment [3] were < 100 nM, 100 to 1000 nM and < 100 nM, respectively.
As for `Cc1c(-c2cn(-c3ccc(F)cc3)nn2)cnc(C(=O)NCC(=O)O)c1O` [Compound 41, (5-(1-(4-fluorophenyl)-1H-1,2,3-triazol-4-yl)-3-hydroxy-4-methylpicolinoyl)glycine], the half-inhibitory concentration (IC50) in experiment [1] was < 100 nM; in experiment [2] (TR-FRET, 35 nM PHD3, 1 μM 2-OG), < 100 nM; in experiment [3], < 100 nM.
On to `Cc1c(-c2cc(Cl)cc(Cl)c2)cnc(C(=O)NCC(=O)O)c1O` [Compound 36, (5-(3,5-dichlorophenyl)-3-hydroxy-4-methylpicolinoyl)glycine], for which the concentration for half-maximal inhibition (IC50) in experiment [1] was < 100 nM; in experiment [2] (TR-FRET, 35 nM PHD3, 1 μM 2-OG) it was < 100 nM; in experiment [3], < 100 nM.
`COc1cccc(-c2cnc(C(=O)NCC(=O)O)c(O)c2C)c1` [Compound 2, (3-Hydroxy-5-(3-methoxyphenyl)-4-methylpicolinoyl)glycine]: the IC50 was < 100 nM in experiment [1]; < 100 nM in experiment [2] (TR-FRET, 35 nM PHD3, 1 μM 2-OG); < 100 nM in experiment [3].
Turning to `Cc1c(-c2cnn(-c3ccccn3)c2)cnc(C(=O)NCC(=O)O)c1O` [Compound 18, (3-Hydroxy-4-methyl-5-(1-(pyridin-2-yl)-1H-pyrazol-4-yl)picolinoyl)glycine], the IC50 is < 100 nM in experiment [1]; < 100 nM in experiment [2] (TR-FRET, 35 nM PHD3, 1 μM 2-OG); < 100 nM in experiment [3].
Take `Cc1c(-c2ccc3ccccc3c2)cnc(C(=O)NCC(=O)O)c1O` [Compound 33, (3-hydroxy-4-methyl-5-(naphthalen-2-yl)picolinoyl)glycine]: the IC50 in experiment [1] was < 100 nM; in experiment [2] (TR-FRET, 35 nM PHD3, 1 μM 2-OG) it was < 100 nM; in experiment [3], < 100 nM.
For the molecule `Cc1c(-c2cn(-c3ccccc3)nn2)cnc(C(=O)NCC(=O)O)c1O` [Compound 44, (3-hydroxy-4-methyl-5-(1-phenyl-1H-1,2,3-triazol-4-yl)picolinoyl)glycine], the IC50 was < 100 nM in experiment [1]; < 100 nM in experiment [2] (TR-FRET, 35 nM PHD3, 1 μM 2-OG); < 100 nM in experiment [3].
On to `Cc1c(-c2cccnc2)cnc(C(=O)NCC(=O)O)c1O` [Compound 10, (5-Hydroxy-4-methyl-[3,3′-bipyridine]-6-carbonyl)glycine], for which the IC50 in experiment [1] is < 100 nM; in experiment [2] (TR-FRET, 35 nM PHD3, 1 μM 2-OG), < 100 nM; in experiment [3], < 100 nM.
Consider `Cc1c(-c2cnn(CC(C)C)c2)cnc(C(=O)NCC(=O)O)c1O` [Compound 22, (3-Hydroxy-5-(1-isobutyl-1H-pyrazol-4-yl)-4-methylpicolinoyl)glycine], for which the IC50 in experiment [1] was < 100 nM; in experiment [2] (TR-FRET, 35 nM PHD3, 1 μM 2-OG) it was < 100 nM; in experiment [3], < 100 nM.
Consider `Cc1c(-c2cccc(Cl)c2)cnc(C(=O)NCC(=O)O)c1O` [Compound 32, (5-(3-chlorophenyl)-3-hydroxy-4-methylpicolinoyl)glycine], for which the IC50 in experiment [1] was < 100 nM; in experiment [2] (TR-FRET, 35 nM PHD3, 1 μM 2-OG), < 100 nM; in experiment [3], < 100 nM.
As for `Cc1c(-c2cn(CCc3ccc(Cl)cc3)nn2)cnc(C(=O)NCC(=O)O)c1O` [Compound 42, (5-(1-(4-chlorophenethyl)-1H-1,2,3-triazol-4-yl)-3-hydroxy-4-methylpicolinoyl)glycine], the IC50 in experiment [1] is < 100 nM; in experiment [2] (TR-FRET, 35 nM PHD3, 1 μM 2-OG), < 100 nM; in experiment [3], < 100 nM.
Regarding `Cc1c(-c2cnn(-c3ccc(F)cc3)c2)cnc(C(=O)NCC(=O)O)c1O` [Compound 19, (5-(1-(4-Fluorophenyl)-1H-pyrazol-4-yl)-3-hydroxy-4-methylpicolinoyl)glycine], the IC50 was < 100 nM in experiment [1]; < 100 nM in experiment [2] (TR-FRET, 35 nM PHD3, 1 μM 2-OG); < 100 nM in experiment [3].
Consider `Cc1c(-c2ccc3cnccc3c2)cnc(C(=O)NCC(=O)O)c1O` [Compound 3, (3-Hydroxy-5-(isoquinolin-6-yl)-4-methylpicolinoyl)glycine], for which the IC50 in experiment [1] was < 100 nM; in experiment [2] (TR-FRET, 35 nM PHD3, 1 μM 2-OG), < 100 nM; in experiment [3] it was < 100 nM.
As for `Cc1ccc2cc(-c3cnc(C(=O)NCC(=O)O)c(O)c3C)ccc2n1` [Compound 5, (3-Hydroxy-4-methyl-5-(2-methylquinolin-6-yl)picolinoyl)glycine], the concentration for half-maximal inhibition (IC50) in experiment [1] was < 100 nM; in experiment [2] (TR-FRET, 35 nM PHD3, 1 μM 2-OG) it was < 100 nM; in experiment [3], < 100 nM.
In the case of `Cc1nn(-c2cccc(F)c2)cc1-c1cnc(C(=O)NCC(=O)O)c(O)c1C` [Compound 39, (5-(1-(3-fluorophenyl)-3-methyl-1H-pyrazol-4-yl)-3-hydroxy-4-methylpicolinoyl)glycine], the IC50 was < 100 nM in experiment [1]; < 100 nM in experiment [2] (TR-FRET, 35 nM PHD3, 1 μM 2-OG); < 100 nM in experiment [3].
Consider `Cc1c(-c2cnn(C3CCOCC3)c2)cnc(C(=O)NCC(=O)O)c1O` [Compound 21, (3-Hydroxy-4-methyl-5-(1-(tetrahydro-2H-pyran-4-yl)-1H-pyrazol-4-yl)picolinoyl)glycine], for which the IC50 is < 100 nM in experiment [1]; < 100 nM in experiment [2] (TR-FRET, 35 nM PHD3, 1 μM 2-OG); < 100 nM in experiment [3].
Regarding `Cc1c(-c2cnc(-c3ccccc3)o2)cnc(C(=O)NCC(=O)O)c1O` [Compound 26, (3-hydroxy-4-methyl-5-(2-phenyloxazol-5-yl)picolinoyl)glycine], the concentration for half-maximal inhibition (IC50) in experiment [1] was < 100 nM; in experiment [2] (TR-FRET, 35 nM PHD3, 1 μM 2-OG), < 100 nM; in experiment [3] it was < 100 nM.
On to `Cc1nc(C(=O)NCC(=O)O)c(O)c(C)c1-c1cnn(-c2ccccc2)c1` [Compound 25, (3-Hydroxy-4,6-dimethyl-5-(1-phenyl-1H-pyrazol-4-yl)picolinoyl)glycine], for which the IC50 was < 100 nM in experiment [1]; < 100 nM in experiment [2] (TR-FRET, 35 nM PHD3, 1 μM 2-OG); < 100 nM in experiment [3].
Take `Cc1nc(-c2ccccc2)sc1-c1cnc(C(=O)NCC(=O)O)c(O)c1C` [Compound 37, (3-hydroxy-4-methyl-5-(4-methyl-2-phenylthiazol-5-yl)picolinoyl)glycine]: the concentration for half-maximal inhibition (IC50) in experiment [1] is < 100 nM; in experiment [2] (TR-FRET, 35 nM PHD3, 1 μM 2-OG) it was < 100 nM; in experiment [3] it was < 100 nM.
As for `Cc1c(-c2ccc(C(F)(F)F)nc2)cnc(C(=O)NCC(=O)O)c1O` [Compound 9, (5-Hydroxy-4-methyl-6′-(trifluoromethyl)-[3,3′-bipyridine]-6-carbonyl)glycine], the IC50 in experiment [1] is < 100 nM; in experiment [2] (TR-FRET, 35 nM PHD3, 1 μM 2-OG), < 100 nM; in experiment [3] it was < 100 nM.
For `Cc1c(-c2cnc3ccccc3c2)cnc(C(=O)NCC(=O)O)c1O` [Compound 28], the IC50 in experiment [1] is < 100 nM; in experiment [2] (TR-FRET, 35 nM PHD3, 1 μM 2-OG) it was < 100 nM; in experiment [3], < 100 nM.

The values above are taken from patent US20230295110A1, “PHD INHIBITOR COMPOUNDS, COMPOSITIONS, AND METHODS OF USE” (Akebia Therapeutics, Inc., priority 2020, published 2023).
